Experimental data reported in US8242145B2, “Cyclic diaryl ether compounds as antagonists of prostaglandin D2 receptors” (Panmira Pharmaceuticals, LLC, priority 2008, dated 2012).

Legend:
[1] = target: T1, recombinant human CRTH2 receptor (Homo sapiens, UniProt Q9Y5Y4); experiment: GTPγS binding assay; assay type: biochemical; conditions: +HSA; read-out: hDP2 GTPγS μM (+HSA)
T1 construct: expressed in transfected cells
T1 sequence (Q9Y5Y4 1-395): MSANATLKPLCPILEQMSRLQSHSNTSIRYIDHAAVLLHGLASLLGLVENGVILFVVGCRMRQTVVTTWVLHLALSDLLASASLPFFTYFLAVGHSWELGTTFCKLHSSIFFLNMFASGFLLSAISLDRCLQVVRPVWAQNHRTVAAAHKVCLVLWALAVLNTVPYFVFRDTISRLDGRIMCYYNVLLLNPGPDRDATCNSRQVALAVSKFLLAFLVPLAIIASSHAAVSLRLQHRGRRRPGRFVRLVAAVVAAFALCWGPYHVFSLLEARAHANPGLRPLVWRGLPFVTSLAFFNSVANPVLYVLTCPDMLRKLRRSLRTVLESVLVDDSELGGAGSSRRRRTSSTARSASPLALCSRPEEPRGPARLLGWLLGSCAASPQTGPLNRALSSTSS
Protocol: The ability of a compound to inhibit binding of GTP to DP2 is assessed via a membrane GTPγS assay. CHO cells stably expressing the recombinant human CRTH2 receptor are resuspended in 10 mM Hepes, 7.4 containing 1 mM DTT, lysed and centrifuged at 75,000×g to pellet the membranes. The membranes are resuspended in 10 mM Hepes, 7.4 containing 1 mM DTT and 10% glycerol. Membranes (˜12.5 μg per well) are incubated in 96-well plates with 0.05 nM [^35S]-GTPγS, 80 nM PGD2, 5 μM GDP, and test compound in Assay Buffer (50 mM Hepes, pH 7.4, 100 mM NaCl, 5 mM MgCl2 and 0.2% human serum albumin) for 60 minutes at 30° C. The reactions are terminated by rapid filtration through Whatman GF/B glass fibre filter plates. The filter plates are washed 3 times with 1 ml cold Assay Buffer and dried. Scintillant is then added to the plates and the radioactivity retained on the filters is determined on a Packard TopCount (Perkin Elmer). Specific binding is determined as total radioactive binding minus non-specific binding in the absence of the ligand (80 nM PGD2). IC50s were determined using Graphpad prism analysis of drug titration curves.

human DP1 receptor = target: T2, human DP1 receptor (Homo sapiens, UniProt Q13258); experiment: DP1 radioligand binding assay using [3H]BWA868C; conditions: hDP1 binding
T2 construct: tissue Biological Specialty Corporation; host or cells: human platelets, membranes
T2 sequence (Q13258 1-359): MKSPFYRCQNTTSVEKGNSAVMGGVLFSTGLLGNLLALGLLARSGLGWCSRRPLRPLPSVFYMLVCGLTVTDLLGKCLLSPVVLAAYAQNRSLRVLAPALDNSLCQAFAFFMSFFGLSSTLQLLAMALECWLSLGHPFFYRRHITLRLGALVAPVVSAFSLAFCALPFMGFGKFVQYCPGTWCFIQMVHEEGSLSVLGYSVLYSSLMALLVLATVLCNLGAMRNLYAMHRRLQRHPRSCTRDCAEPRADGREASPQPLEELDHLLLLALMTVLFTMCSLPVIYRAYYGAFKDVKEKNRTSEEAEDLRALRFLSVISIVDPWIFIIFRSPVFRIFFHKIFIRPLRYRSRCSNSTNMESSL
Protocol: The ability of a compound to bind to the human DP1 receptor was evaluated via a radioligand membrane binding assay using the DP1 selective synthetic ligand [^3H]BW A868C. Packed human platelets (Biological Specialty Corporation), were resuspended in 6 volumes of Hepes/HBSS buffer (10 mM Hepes, 1 mM DTT in Hanks Balanced Salt Solution (HBSS)), lysed and centrifuged at 75,000×g to pellet the membranes. Membranes were resuspended in Hepes/HBSS buffer to approximately 12 mg protein/ml. Membranes (20 μg protein/well) are incubated in 96-well plates with 2 nM [^3H]BWA868C and test compound in Assay Buffer (50 mM Hepes, 10 mM MnCl2, 1 mM EDTA, plus or minus 0.2% human serum albumin, pH 7.4) for 60 minutes at room temperature. The reactions are terminated by rapid filtration through Whatman GF/C glass fibre filter plates. The filter plates were pre-soaked in 0.33% polethylenimine for 30 minutes at room temperature then washed in Wash Buffer (50 mM Hepes, 0.5 M NaCl pH 7.4) prior to harvesting. After harvesting, the filter plates are washed 3 times with 1 ml cold Wash Buffer then dried. Scintillant is then added to the plates and the radioactivity retained on the filters is determined on a Packard TopCount (Perkin Elmer). Specific binding is determined as total radioactive binding minus non-specific binding in the presence of 10 μM BW A868C. IC50s were determined using GraphPad prism analysis of drug titration curves.

human DP2 receptor = target: T3, human DP2 receptor (Homo sapiens, UniProt Q9Y5Y4); experiment: DP2/CRTH2 radioligand binding assay using [3H]PGD2; conditions: hDP2 (CRTH2) binding assay
T3 construct: expressed in transfected cells
T3 sequence (Q9Y5Y4 1-395): T1 sequence (Q9Y5Y4 1-395)
Protocol: The ability of a compound to bind to the human DP2 receptor is assessed via a radioligand binding assay using [^3H]PGD2. HEK293 cells stably expressing recombinant human DP2 are resuspended in 10 mM Hepes, 7.4 containing 1 mM DTT, lysed and centrifuged at 75,000×g to pellet the membranes. The membranes are resuspended in 10 mM Hepes, 7.4 containing 1 mM DTT and 10% glycerol to approximately 5 mg protein/ml. Membranes (2-10 μg protein/well) are incubated in 96-well plates with 1 nM [^3H]PGD2 and test compound in Assay Buffer (50 mM Hepes, 10 mM MnCl2, 1 mM EDTA, plus or minus 0.2% human serum albumin, pH 7.4) for 60 minutes at room temperature. The reactions are terminated by rapid filtration through Whatman GF/C glass fibre filter plates. The filter plates were pre-soaked in 0.33% polythylenimine for 30 minutes at room temperature then washed in Wash Buffer (50 mM Hepes, 0.5 M NaCl pH 7.4) prior to harvesting. After harvesting, the filter plates are washed 3 times with 1 ml cold Wash Buffer then dried. Scintillant is then added to the plates and the radioactivity retained on the filters is determined on a Packard TopCount (Perkin Elmer). Specific binding is determined as total radioactive binding minus non-specific binding in the presence of 10 μM PGD2. IC50s were determined using GraphPad prism analysis of drug titration curves.

IC50 [1] [µM]	IC50 (human DP1 receptor) [nM]	IC50 (human DP2 receptor) [nM]	Structure (SMILES)
> 1	> 1000	< 300	O=C(O)Cc1cccc(Oc2ccc(-c3cccnc3)cc2CN2CCOC2=O)c1 [Compound 1-8, {3-[2-(2-Oxo-oxazolidin-3-ylmethyl)-4-pyridin-3-yl-phenoxy]-phenyl}-acetic acid]
< 0.3	> 1000	< 300	COc1ccc(CC(=O)O)cc1Oc1ccc(C(F)(F)F)cc1CN1CCOC1=O [Compound 1-9, {4-Methoxy-3-[2-(2-oxo-oxazolidin-3-ylmethyl)-4-trifluoromethyl-phenoxy]-phenyl}-acetic acid]
> 1	> 1000	< 300	CC(C(=O)O)c1cccc(Oc2ccc(C(F)(F)F)cc2CN2CCOC2=O)c1 (stereo not drawn) [Compound 1-10, 2-{3-[2-(2-Oxo-oxazolidin-3-ylmethyl)-4-trifluoromethyl-phenoxy]-phenyl}-propionic acid]
0.3 to 1	< 300	< 300	O=C(O)Cc1cc(Oc2ccc(C(F)(F)F)cc2CN2CCOC2=O)ccc1-c1ccccc1 [Compound 1-13, {4-[2-(2-Oxo-oxazolidin-3-ylmethyl)-4-trifluoromethyl-phenoxy]-biphenyl-2-yl}-acetic acid]
< 0.3	> 1000	< 300	COc1ccc(CC(=O)O)cc1Oc1ccc(Br)cc1CN1CCOC1=O [Compound 1-14, {3-[4-Bromo-2-(2-oxo-oxazolidin-3-ylmethyl)-phenoxy]-4-methoxy-phenyl}-acetic acid]
0.3 to 1	< 300	< 300	C[C@H]1[C@@H](c2ccccc2)OC(=O)N1Cc1cc(Br)ccc1Oc1cccc(CC(=O)O)c1 [Compound 1-15, {3-[4-Bromo-2-((4S,5R)-4-methyl-2-oxo-5-phenyl-oxazolidin-3-ylmethyl)-phenoxy]-phenyl}-acetic acid]
> 1	< 300	< 300	C[C@H]1[C@@H](c2ccc(Cl)cc2)OC(=O)N1Cc1cc(Br)ccc1Oc1cccc(CC(=O)O)c1 [Compound 1-16, (3-{4-Bromo-2-[(4S,5R)-5-(4-chloro-phenyl)-4-methyl-2-oxo-oxazolidin-3-ylmethyl]-phenoxy}-phenyl)-acetic acid]
< 0.3	< 300	< 300	C[C@H]1[C@@H](c2cc(F)cc(F)c2)OC(=O)N1Cc1cc(Br)ccc1Oc1cccc(CC(=O)O)c1 [Compound 1-17, (3-{4-Bromo-2-[(4S,5R)-5-(3,5-difluoro-phenyl)-4-methyl-2-oxo-oxazolidin-3-ylmethyl]-phenoxy}-phenyl)-acetic acid]
< 0.3	< 300	< 300	C[C@H]1[C@@H](c2cc(C(F)(F)F)cc(C(F)(F)F)c2)OC(=O)N1Cc1cc(Br)ccc1Oc1cccc(CC(=O)O)c1 [Compound 1-18, (3-{2-[(4S,5R)-5-(3,5-Bis-trifluoromethyl-phenyl)-4-methyl-2-oxo-oxazolidin-3-ylmethyl]-4-bromo-phenoxy}-phenyl)-acetic acid]
> 1	300 to 1000	< 300	C[C@H]1[C@@H](c2ccccc2)OC(=O)N1Cc1cc(-c2cncn2C)ccc1Oc1cccc(CC(=O)O)c1 [Compound 1-22, {3-[4-(3-Methyl-3H-imidazol-4-yl)-2-((4S,5R)-4-methyl-2-oxo-5-phenyl-oxazolidin-3-ylmethyl)-phenoxy]-phenyl}-acetic acid]
> 1	< 300	300 to 1000	C[C@H]1[C@@H](c2ccccc2)OC(=O)N1Cc1cc(Br)ccc1Oc1ccc(Cl)c(CC(=O)O)c1 [Compound 1-24, {5-[4-Bromo-2-((4S,5R)-4-methyl-2-oxo-5-phenyl-oxazolidin-3-ylmethyl)-phenoxy]-2-chloro-phenyl}-acetic acid]
> 1	> 1000	300 to 1000	C[C@H]1[C@@H](c2ccccc2)OC(=O)N1Cc1cc(Br)ccc1Oc1ccc(C(F)(F)F)c(CC(=O)O)c1 [Compound 1-25, {5-[4-Bromo-2-((4S,5R)-4-methyl-2-oxo-5-phenyl-oxazolidin-3-ylmethyl)-phenoxy]-2-trifluoromethyl-phenyl}-acetic acid]
< 0.3	< 300	< 300	C[C@H]1[C@@H](c2ccccc2)OC(=O)N1Cc1cc(Br)ccc1Oc1cc(F)cc(CC(=O)O)c1 [Compound 1-26, {3-[4-Bromo-2-((4S,5R)-4-methyl-2-oxo-5-phenyl-oxazolidin-3-ylmethyl)-phenoxy]-5-fluoro-phenyl}-acetic acid]
< 0.3	< 300	< 300	C[C@H]1[C@@H](c2ccccc2)OC(=O)N1Cc1cc(Br)ccc1Oc1cc(Cl)cc(CC(=O)O)c1 [Compound 1-27, {3-[4-Bromo-2-((4S,5R)-4-methyl-2-oxo-5-phenyl-oxazolidin-3-ylmethyl)-phenoxy]-5-chloro-phenyl}-acetic acid]
< 0.3	> 1000	< 300	C[C@H]1[C@@H](c2ccccc2)OC(=O)N1Cc1cc(Br)ccc1Oc1cc(CC(=O)O)cc(C(F)(F)F)c1 [Compound 1-28, {3-[4-Bromo-2-((4S,5R)-4-methyl-2-oxo-5-phenyl-oxazolidin-3-ylmethyl)-phenoxy]-5-trifluoromethyl-phenyl}-acetic acid]
> 1	> 1000	< 300	C[C@H]1[C@@H](c2ccccc2)OC(=O)N1Cc1cc(Br)ccc1Oc1cc(CC(=O)O)ccc1Cl [Compound 1-29, {3-[4-Bromo-2-((4S,5R)-4-methyl-2-oxo-5-phenyl-oxazolidin-3-ylmethyl)-phenoxy]-4-chloro-phenyl}-acetic acid]
0.3 to 1	> 1000	< 300	COc1ccc(CC(=O)O)cc1Oc1ccc(Br)cc1CN1C(=O)O[C@H](c2ccccc2)[C@@H]1C [Compound 1-30, {3-[4-Bromo-2-((4S,5R)-4-methyl-2-oxo-5-phenyl-oxazolidin-3-ylmethyl)-phenoxy]-4-methoxy-phenyl}-acetic acid]
